Test results: PubChem BioAssay AID2060909 (Molecular Pharmacology Branch, DTP, NCI, 2025)

Tested on: 362531-283-R-J2-PDC complex spheroid viability
Test: Anticancer human tumor 362531-283-R-J2-PDC patient-derived colon adenocarcinoma cell line growth inhibition [RAS]
Details: for IC50: curve of first compound; for viability, T/C: stronger effect = lower value
How it was run: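 Agents were tested in combination matrices in half-log decrements from a top concentration at or near clinical Cmax (10 microM if undetermined). Targets were multi-cell spheroids of tumour lines plus HUVEC and MSC stromal cells.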

[1] = second compound 0.000949 µM, first compound 0.0316 µM
[2] = second compound 0.000949 µM, first compound 0.1 µM
[3] = second compound 0.000949 µM, first compound 0.316 µM
[4] = second compound 0.000949 µM, first compound 1 µM
[5] = second compound 0.000949 µM, first compound 3.16 µM
[6] = second compound 0.000949 µM, first compound 10 µM
[7] = second compound 0.003 µM, first compound 0.0316 µM
[8] = second compound 0.003 µM, first compound 0.1 µM
[9] = second compound 0.003 µM, first compound 0.316 µM
[10] = second compound 0.003 µM, first compound 1 µM
[11] = second compound 0.003 µM, first compound 3.16 µM
[12] = second compound 0.003 µM, first compound 10 µM
[13] = second compound 0.00949 µM, first compound 0.0316 µM
[14] = second compound 0.00949 µM, first compound 0.1 µM
[15] = second compound 0.00949 µM, first compound 0.316 µM
[16] = second compound 0.00949 µM, first compound 1 µM
[17] = second compound 0.00949 µM, first compound 3.16 µM
[18] = second compound 0.00949 µM, first compound 10 µM
[19] = second compound 0.03 µM, first compound 0.0316 µM
[20] = second compound 0.03 µM, first compound 0.1 µM
[21] = second compound 0.03 µM, first compound 0.316 µM
[22] = second compound 0.03 µM, first compound 1 µM
[23] = second compound 0.03 µM, first compound 3.16 µM
[24] = second compound 0.03 µM, first compound 10 µM
[25] = second compound 0.0949 µM, first compound 0.0316 µM
[26] = second compound 0.0949 µM, first compound 0.1 µM
[27] = second compound 0.0949 µM, first compound 0.316 µM
[28] = second compound 0.0949 µM, first compound 1 µM
[29] = second compound 0.0949 µM, first compound 3.16 µM
[30] = second compound 0.0949 µM, first compound 10 µM
[31] = second compound 0.3 µM, first compound 0.0316 µM
[32] = second compound 0.3 µM, first compound 0.1 µM
[33] = second compound 0.3 µM, first compound 0.316 µM
[34] = second compound 0.3 µM, first compound 1 µM
[35] = second compound 0.3 µM, first compound 3.16 µM
[36] = second compound 0.3 µM, first compound 10 µM
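Also: spheroids exposed to the agents for 7 days before readout.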
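For viability, T/C in this document: luminescence viability as percent of DMSO vehicle control wells.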

In the case of `CC1(O)CCCC1n1c(=O)c(C(F)F)cc2cnc(NC3CCN(S(C)(=O)=O)CC3)nc21` (centres undefined) + CCn1c(-c2cccnc2C(C)OC)c2c3cc(ccc31)N1CCOC(CC(NC(=O)C(C(C)C)N(C)C(=O)C3(F)CCN(C(=O)C#CC(C)(C)N(C)C)CC3)C(=O)N3CCCC(N3)C(=O)OCC(C)(C)C2)C1, the IC50 (second compound 0.000949 µM) is reported as over 10 µM, the IC50 (second compound 0.003 µM) is reported as 6.21 µM and the IC50 (second compound 0.00949 µM) is reported as over 10 µM. For the same compound, the IC50 (second compound 0.03 µM) was 4.98 µM, the IC50 (second compound 0.0949 µM) was over 10 µM and the IC50 (second compound 0.3 µM) was over 10 µM. The viability, T/C [1] was 97.1%, the viability, T/C [2] was 113% and the viability, T/C [3] was 92.2%. The viability, T/C [4] was 70%, the viability, T/C [5] was 55% and the viability, T/C [6] was 73.7%. It also gave a viability, T/C [7] of 102%, a viability, T/C [8] of 92.1% and a viability, T/C [9] of 89.8%. The viability, T/C [10] was 72%, the viability, T/C [11] was 57.9% and the viability, T/C [12] was 44.6%. For the same compound, the viability, T/C [13] was 108%, the viability, T/C [14] was 110% and the viability, T/C [15] was 84%. It also gave a viability, T/C [16] of 72.4%, a viability, T/C [17] of 50.5% and a viability, T/C [18] of 53.9%. It also gave a viability, T/C [19] of 103%, a viability, T/C [20] of 97% and a viability, T/C [21] of 77.7%. The viability, T/C [22] was 63%, the viability, T/C [23] was 63.9% and the viability, T/C [24] was 38.9%. It also gave a viability, T/C [25] of 102%, a viability, T/C [26] of 91% and a viability, T/C [27] of 94.5%. For the same compound, the viability, T/C [28] was 58.9%, the viability, T/C [29] was 53.9% and the viability, T/C [30] was 54.7%. It also gave a viability, T/C [31] of 100%, a viability, T/C [32] of 87.4% and a viability, T/C [33] of 87.7%. It also gave a viability, T/C [34] of 66%, a viability, T/C [35] of 56.9% and a viability, T/C [36] of 51.4%.

For `CCC(CC)c1cc(NC2CCC(N)C2)n2nccc2n1` (centres undefined) + CCn1c(-c2cccnc2C(C)OC)c2c3cc(ccc31)N1CCOC(CC(NC(=O)C(C(C)C)N(C)C(=O)C3(F)CCN(C(=O)C#CC(C)(C)N(C)C)CC3)C(=O)N3CCCC(N3)C(=O)OCC(C)(C)C2)C1, the IC50 (second compound 0.000949 µM) was 4.52 µM, the IC50 (second compound 0.003 µM) was 4.5 µM and the IC50 (second compound 0.00949 µM) was 4.34 µM. For the same compound, the IC50 (second compound 0.03 µM) was 4.72 µM, the IC50 (second compound 0.0949 µM) was 4.68 µM and the IC50 (second compound 0.3 µM) was 4.95 µM. The viability, T/C [1] was 99.5%, the viability, T/C [2] was 111% and the viability, T/C [3] was 98.1%. The viability, T/C [4] was 98.4%, the viability, T/C [5] was 70.5% and the viability, T/C [6] was 3.98%. It also gave a viability, T/C [7] of 105%, a viability, T/C [8] of 101% and a viability, T/C [9] of 99.9%. It also gave a viability, T/C [10] of 101%, a viability, T/C [11] of 70.8% and a viability, T/C [12] of 3.44%. The viability, T/C [13] was 103%, the viability, T/C [14] was 116% and the viability, T/C [15] was 97.9%. For the same compound, the viability, T/C [16] was 96.5%, the viability, T/C [17] was 67.2% and the viability, T/C [18] was 3.91%. The viability, T/C [19] was 102%, the viability, T/C [20] was 104% and the viability, T/C [21] was 95.8%. The viability, T/C [22] was 89%, the viability, T/C [23] was 76.8% and the viability, T/C [24] was 4.25%. The viability, T/C [25] was 94.3%, the viability, T/C [26] was 102% and the viability, T/C [27] was 93.7%. It also gave a viability, T/C [28] of 94.8%, a viability, T/C [29] of 73.7% and a viability, T/C [30] of 4.42%. For the same compound, the viability, T/C [31] was 99.2%, the viability, T/C [32] was 105% and the viability, T/C [33] was 100%. For the same compound, the viability, T/C [34] was 91.8%, the viability, T/C [35] was 80.8% and the viability, T/C [36] was 4.23%.
